Measurements as given in patent publication US10662194B2, “Substituted 6-anilino-9-heterocyclylpurine derivatives for inhibition of plant stress” (UNIVERZITA PALACKEHO V OLOMOUCI, priority 2014, dated 2020).
Marks after values point to notes of the source that are not given here.

Experiments:
[1] = test system: human U2OS cells; assay: Induction of DNA breakage, γ-H2AX immunofluorescence; type: cell-based; conditions: 100 μM, 24 h, FIG. 13
Description: Maintenance of genome integrity is essential for homeostasis and survival as impaired DNA damage response may predispose to grave pathologies such as neurodegenerative and immunodeficiency syndromes, cancer and premature aging (Mistrik et al., 2009). The potential effect of compound 12 on stimulation of DNA breakage was thus further estimated through analysis of phosphorylated histone H2AX (gamma-H2AX) quantified by optimized automated single-cell image analysis (Mistrik et al., 2009). The compound 12 was tested in concentration of 100 μM, the highest concentration accessible due to the compound solubility. Induction of DNA breakage was tested using human U2OS cells. The U2OS cells were cultivated at standard cultivation condition (37° C., 5% CO2). As a positive control, cells were irradiated by roentgen radiation (Baltobloc) (0.5 Gy-2 Gy), one hour later fixed and stained for γ-H2AX, a well established marker of the DNA damage. Parallel samples were treated by compound 12 for 24 hours, fixed and also stained for γ-H2AX. Microscopy analysis followed by computer based signal quantification was performed as described previously (Mistrik et al., 2009).

[2] = test system: Arabidopsis (ecotype Col-0); assay: Drenching application, morphological and yield traits of Arabidopsis in soil; type: in vivo
Description: To test the effect on wild-type plants Arabidopsis (ecotype Col-0) was grown in soil in controlled conditions in a growth chambre (16 hours light/8 hours dark; light intensity 120 […]; 22° C.; 60% humidity). In the stage of app. the middle of the principal growth stage 1 and the beginning of principal growth stage 5 (according to Arabidopsis growth stages described by Boyes et al., 2001) 1-10 mL of the compound 12 was applied regulary every third day in 0.1 and 1 μM concentration in different application rates (experiment 1-1 mL of 1 μM compound 12 water solution 12-times; experiment 2-10 mL of 0.1 and 1 μM compound 12 water solution 1-, 3- and 5-times) by drenching to each plant pot. DMSO (0.01%) was used as a solvent control. The plants were grown till the end of the generative stage and then morphological parametres (primary inflorescence stem length, number of auxiliary branches, number of lateral branches, fresh shoot biomass, number of flowers, number of siliques) and the seed yield were recorded.

## COc1cccc(Nc2nc(Cl)nc3c2ncn3C2CCCCO2)c1 (stereo not drawn) [compound 12, 2-chloro-6-(3-methoxyanilino)-9-(tetrahydropyran-2-yl)purine]
[1]
  DNA damage (γ-H2AX): no effect on DNA damage
[2]; 0.1 μM, application rate 1x
  No. of auxiliary branches: 4.06 ± 1.3
  No. of auxiliary branches (% of control): (113%)
  No. of flowers: 116.12 ± 70
  No. of flowers (% of control): (153%)*
  No. of lateral branches: 8.59 ± 3.1
  No. of lateral branches (% of control): (182%)***
  No. of siliques: 133.94 ± 47
  No. of siliques (% of control): (100%)
  fresh shoot biomass: 1.18 ± 0.4 g
  fresh shoot biomass (% of control): (108%)
  primary inflorescence stem length: 32.78 ± 5.5 cm
  primary inflorescence stem length (% of control): (98%)
  seed yield per plant: 0.30 ± 0.1 g
  seed yield per plant (% of control): (102%)
[2]; 0.1 μM, application rate 3x
  No. of auxiliary branches: 3.82 ± 0.6
  No. of auxiliary branches (% of control): (106%)
  No. of flowers: 91.23 ± 50.1
  No. of flowers (% of control): (120%)
  No. of lateral branches: 8.35 ± 3.3
  No. of lateral branches (% of control): (177%)***
  No. of siliques: 154.29 ± 25.6
  No. of siliques (% of control): (115%)
  fresh shoot biomass: 1.16 ± 0.2 g
  fresh shoot biomass (% of control): (106%)
  primary inflorescence stem length: 39.6 ± 3.8 cm
  primary inflorescence stem length (% of control): (119%)***
  seed yield per plant: 0.31 ± 0.1 g
  seed yield per plant (% of control): (106%)
[2]; 0.1 μM, application rate 5x
  No. of auxiliary branches: 3.94 ± 1.1
  No. of auxiliary branches (% of control): (109%)
  No. of flowers: 99.59 ± 59.3
  No. of flowers (% of control): (131%)
  No. of lateral branches: 9.82 ± 4.4
  No. of lateral branches (% of control): (208%)***
  No. of siliques: 141.24 ± 31.7
  No. of siliques (% of control): (105%)
  fresh shoot biomass: 1.18 ± 0.3 g
  fresh shoot biomass (% of control): (108%)
  primary inflorescence stem length: 38.61 ± 5.2 cm
  primary inflorescence stem length (% of control): (116%)***
  seed yield per plant: 0.35 ± 0.1 g
  seed yield per plant (% of control): (120%)
[2]; 1 μM, application rate 1x
  No. of auxiliary branches: 4.29 ± 1.5
  No. of auxiliary branches (% of control): (119%)
  No. of flowers: 139.65 ± 51.7
  No. of flowers (% of control): (184%)***
  No. of lateral branches: 13.35 ± 4.7
  No. of lateral branches (% of control): (283%)***
  No. of siliques: 134.82 ± 31.1
  No. of siliques (% of control): (100%)
  fresh shoot biomass: 1.17 ± 0.3 g
  fresh shoot biomass (% of control): (107%)
  primary inflorescence stem length: 32.66 ± 3.8 cm
  primary inflorescence stem length (% of control): (98%)
  seed yield per plant: 0.37 ± 0.1 g
  seed yield per plant (% of control): (126%)
[2]; 1 μM, application rate 3x
  No. of auxiliary branches: 4.29 ± 1.1
  No. of auxiliary branches (% of control): (119%)*
  No. of flowers: 118.53 ± 36.6
  No. of flowers (% of control): (156%)***
  No. of lateral branches: 13.50 ± 3.9
  No. of lateral branches (% of control): (286%)***
  No. of siliques: 155.29 ± 44.1
  No. of siliques (% of control): (116%)
  fresh shoot biomass: 1.23 ± 0.3 g
  fresh shoot biomass (% of control): (113%)
  primary inflorescence stem length: 39.07 ± 3.2 cm
  primary inflorescence stem length (% of control): (117%)***
  seed yield per plant: 0.36 ± 0.1 g
  seed yield per plant (% of control): (122%)
[2]; 1 μM, application rate 5x
  No. of auxiliary branches: 4.50 ± 1.3
  No. of auxiliary branches (% of control): (125%)
  No. of flowers: 143.56 ± 66.3
  No. of flowers (% of control): (189%)***
  No. of lateral branches: 16.44 ± 6.1
  No. of lateral branches (% of control): (349%)***
  No. of siliques: 220.00 ± 37.4
  No. of siliques (% of control): (164%)***
  fresh shoot biomass: 1.81 ± 0.3 g
  fresh shoot biomass (% of control): (166%)***
  primary inflorescence stem length: 44.66 ± 5.9 cm
  primary inflorescence stem length (% of control): (134%)***
  seed yield per plant: 0.33 ± 0.1 g
  seed yield per plant (% of control): (111%)
[2]; experiment 1: 1 mL of 1 μM, 12-times, drenching, FIG. 8
  overall shoot biomass: stimulation of the overall shoot biomass
[2]; experiment 2, higher doses
  increase of fresh shoot biomass compared to control: 6-22%
  increase of number of auxiliary branches compared to control: 6-25%
  increase of number of flowers compared to control: 20-89%
  increase of number of lateral branches compared to control: 77-249%
  increase of number of siliques compared to control: 5-66%
  increase of primary inflorescence stem length compared to control: 16-34%
  increase of seed yield compared to control: 6-26%
